Measurements from patent publication US6113896A, “Pharmaceutical compositions containing ecotin and homologs thereof” (priority 1994, dated 2000).
Where “and” joins values, the source holds several entries; their conditions need not be identical. Identical values can stand only once. Entries after “also recorded” stand apart in the source; their conditions may differ.

How the values were obtained:
[1] = tested on: human FXa; test: Equilibrium inhibition constant with Factor Xa (tight-binding analysis); type: biochemical; settings: for inhibition of FXa, in words: compared with wild type
Method: Determination of Equilibrium Inhibition Constants Apparent Ki values (Ki *) for the inhibition of the enzymes tested by ecotin and mutants were measured as follows. All reactions were performed at 25° C. Stock solutions of trypsin were quantitated by active site burst titration with MUGB as previously described (Jameson, G. W. et al., Biochem. J. 131:107-117 [1973]) using a Fluoroskan II plate reader at excitation wavelength of 355 nm and emission wavelength of 460 nm. Data was collected on a Macintosh SE20 using either Delta Soft II Fl v3.31 software (BioMetallics). Active site titrated trypsin was then used to quantitate ecotin active sites using BAPA as the substrate; a stoichiometry of 1:1 was assumed (Chung, C. H. et al., supra). Factor Xa, Factor XIIa, plasma kallikrein, or HLE were then quantitated by active site titration using ecotin as a standard, again assuming 1:1 stoichiometry. In addition, the concentration of HLE was quantitated by methods previously described using a calibrated stock of α1 -proteinase inhibitor to titrate the HLE active sites (Beatty, K. et al., J. Biol. Chem. 255:3931-3934 [1980]); the same HLE active site concentration was determined using both ecotin and α1 -proteinase inhibitor. The substate for FXa was Spectrozyme fXa (0.5 mM); the substrate for FXIIa (0.5 mM) and plasma kallikrein was S2302 (0.5 mM); the substrate for HLE was MeOSuc-Ala-Ala-Pro-Val-pNA (0.4 mM). There was good agreement upon comparison of the protein concentrations determined by amino acid analysis, Bradford analysis (Bradford, M. M. Anal. Biochem. 72:248-254 (1976) or active site titrations for trypsin, ecotin, FXa, FXIIa, plasma kallikrein, and HLE.
Therefore, apparent equilibrium dissociation values (Ki *) were determined using methods derived for tight-binding inhibitors (Morrison, J. F. Biochim. Biophys. Acta 185:269-286 [1969]), (Bieth, J. in Proteinase Inhibitors (Fritz, H., Tschesche, H., Greene, L. J. and Truscheit, E., Ed.) pp 463-469, Springer-Verlag, New York [1974]). Data were fit by nonlinear regression analysis to equation 1 and values for Ki * were determined. [formula] where α is the fractional activity (steady-state inhibited rate divided by the uninhibited rate), [Eo ] is the total enzyme concentration, and [Io ] is the total ecotin concentration. Since the inhibitor and substrate compete for the same site, the true Ki value is related to Ki^* by the expression Ki =Ki */(1+[S]/Km), where Km is the Michaelis constant for the substrate, and [S] is the substrate concentration.
a. […] Following a 1 hour incubation at room temperature to reach equilibration of the enzyme.cndot.inhibitor complex, 20 μl of 5 mM Spectrozyme fXa was added, and the steady-state rate of product formation measured by monitoring the change in absorbance at 405 nm. The Km for Spectrozyme fXa with FXa under these conditions was determined to be 0.23 mM by linear regression analysis of Lineweaver-Burke plots.

[2] = tested on: FXa; test: Ecotin·FXa dissociation rate constant (HLE trap); type: biochemical, human; settings: for koff (values in parenthesis): calculated from (Ki)·(kon); for koff: measured in presence of excess HLE to trap free ecotin
Method: Determination of FXa dissociation rate constant The dissociation rate constant of the ecotin.cndot.FXa complex was measured using HLE to trap the free ecotin released from the complex. FXa (10 μM) was incubated for 1 h in TNCT buffer in the presence and absence of ecotin (12.5 μM) and diluted 1000-fold into TNCT buffer with and without HLE (500 nM). Aliquots (180 μl ) were removed at various times and initial rates of free FXa were measured at 405 nm with 20 μl of 5 mM Spectrozyme fXa. The product curve (free FXa versus time) was fit to equation 6; the value for koff was determined by nonlinear regression analysis.
To measure the dissociation rate constant of ecotin from FXa, the complex was diluted 1000-fold into buffer containing a 50-fold excess of HLE to trap the free ecotin and prevent reassociation. In the absence of HLE, reassociation of ecotin with FXa was so rapid that free FXa was barely detectible (FIG. 4B). Progress of dissociation was monitored as the increase in hydrolysis rate of Spectrozyme fXa resulting from the increasing free FXa with time. Because HLE prevented reassociation the rate of dissociation of the E·I complex is given by equation (5): [formula] which upon integration gives equation (6): […]
where [E] is the free [FXa] at any time t, [E.cndot.I]0 is the concentration of the complex at time zero, and koff is the first order dissociation rate constant. The time dependent E·I complex dissociation curve fit to equation (6) by nonlinear regression analysis is shown in FIG. 4B; the dissociation rate constant for ecotin tested is shown above in Table I.

[3] = tested on: thrombin; test: Specificity assay, thrombin; type: biochemical, human; settings: for Percent Activity of Thrombin: 100 nM inhibitor, ~1 h, 3.7 nM enzyme
Method: (§1) Specificity Assays The following assays were used to test the specificity of ecotin and the M84K and M84R mutants against various proteases. Ecotin, M84K, M84R (100 nM each), or a control blank were incubated at room temperature for ~1 h with each enzyme. The enzymes tested (enzyme concentration, buffer, substrate) were FXa (1.2 nM, Buffer A, 0.7 mM Spectrozyme fXa), thrombin (3.7 nM, Buffer A, 0.7 mM S2366), TF.cndot.FVIIa (12.0 nM, Buffer B, 0.7 mM S2366), FXIa (1.2 nM, Buffer A containing 1 mg/ml BSA, 0.7 mM S2366), activated protein C (4.3 nM, Buffer A, 0.7 mM S2366), plasmin (15 nM, Buffer A, 1 mM S2251), single chain t-PA (15 nM, Buffer A, 2.5 mM S2288), Factor XIIa (10 nM, Buffer A, 0.5 mM S2302, plasma kallikrein (10 nM, Buffer A, 0.5 mM S2302), HLE (17 nM, 0.1 M Tris, pH 7.5, 0.5 M NaCl and 0.005 % Triton X-100, 0.42 mM MeOSuc-AAPV-pNA) (SEQ ID NO:9), bovine trypsin (10 nM, Buffer A, 0.25 mM Spectrozyme fXa), and bovine chymotrypsin (10 nM, Buffer A, 1 mM Suc-AAPF-pNA) (SEQ ID NO:10). Buffer A contains 50 mM Tris, pH 7.5, 100 mM NaCl, 2 mM CaCl2 and 0.005% Triton X-100. Buffer B contains 50 mM Tris, pH 7.5, 100 mM NaCl, 10 mM CaCl2, 0.5% BSA, 60 nM TF1-243,and 1 mM CHAPS. The initial change in absorbance at 405 nm was monitored after addition of substrate. Controls lacking inhibitor and/or enzyme were also assayed to assess the uninhibited rates and the background substrate hydrolysis rates, respectively.

[4] = tested on: bovine trypsin; test: Specificity assay, bovine trypsin; type: biochemical; settings: for Percent Activity of Trypsin: 100 nM inhibitor, ~1 h, 10 nM enzyme; for inhibition of bovine trypsin, in words: text statement
Method: as §1

[5] = tested on: bovine chymotrypsin; test: Specificity assay, bovine chymotrypsin; type: biochemical; settings: for Percent Activity of Chymotrypsin: 100 nM inhibitor, ~1 h, 10 nM enzyme; for inhibition of bovine chymotrypsin, in words: text statement
Method: as §1

Substance | inhibition of FXa, in words [1] | koff (values in parenthesis) [2] [s⁻¹] | Percent Activity of Thrombin [3] [%] | inhibition of thrombin, in words ([3]; listed as P1 Lys mutant) | inhibition of thrombin, in words ([3]; text statement) | Percent Activity of Trypsin [4] [%] | inhibition of bovine trypsin, in words [4] | Percent Activity of Chymotrypsin [5] [%] | inhibition of bovine chymotrypsin, in words [5] | Ki ([1]; apparent value, 0.5 mM Spectrozyme fXa, read-out: Ki* (apparent equilibrium dissociation value) with FXa) | half-life of ecotin·FXa complex in vitro [2] | koff [2] [s⁻¹] | koff ([2]; listed as Wild type) [s⁻¹] | koff ([2]; listed as ecotin) [s⁻¹] | inhibition of thrombin, in words ([3]; text statement, listed as ecotin) | inhibition of thrombin, in words ([3]; listed as P1 Arg mutant)
M84K | slightly more potent as FXa inhibitors; also recorded: slightly more potent than the wild type inhibitor | 4.5e-06 | 16 | significantly inhibited | significant inhibition | 0 | significantly inhibited | 1 | significantly inhibited | – | – | – | – | – | – | –
Ecotin: E. coli periplasmic protein having the 142 amino acid residue sequence reported by McGrath et al.; recombinant, P1 Met84 | – | 2.2e-05 | 98 | – | did not effectively inhibit | 0 | – | 0 | – | 0.054 nM and 0.047 nM | ca. 3 h | 6.5e-05 | 6.5e-05 | 6.5e-05 | little or no inhibition | –
M84R | slightly more potent as FXa inhibitors; also recorded: slightly more potent than the wild type inhibitor | 1e-06 | 4 | – | significant inhibition | 0 | significantly inhibited | 0 | significantly inhibited | – | – | – | – | – | – | significantly inhibited
